In general, melting point refers to the temperature of the solid-liquid transition.

Data on 14 molecules can be found in patent publication US7423159B2, “Agent for preventing or treating neuropathy” (Takeda Pharmaceutical Company Limited, priority 2002, dated 2008).

Turning to `CCC(O)(CC)Cc1ccc(NC(=O)/C=C/c2cnn(C)c2-c2ccc(F)cc2)cc1` [Example 115, (2E)-N-[4-(2-Ethyl-2-hydroxybutyl)phenyl]-3-[5-(4-fluorophenyl)-1-methyl-1H-pyrazol-4-yl]acrylamide], the melting point fell in the range of 150 to 151 °C. For `Cn1ncc(/C=C/C(=O)Nc2ccc(Cc3nnn[nH]3)cc2)c1-c1ccc(F)cc1` [Example 87, (2E)-3-[5-(4-Fluorophenyl)-1-methyl-1H-pyrazol-4-yl]-N-[4-(1H-tetrazol-5-ylmethyl)phenyl]acrylamide] the value was 252 to 253 °C. For `COP(=O)(Cc1ccc(NC(=O)CCc2cnn(C)c2-c2ccc(F)cc2)cc1)OC` the value was 142 to 143 °C; for `CSCc1ccc(NC(=O)/C=C/c2cnn(C)c2-c2ccc(F)cc2)cc1` [Example 208, (2E)-3-[5-(4-fluorophenyl)-1-methyl-1H-pyrazol-4-yl]-N-{4-[(methylthio)methyl]phenyl}acrylamide], 165 to 168 °C. For `Cn1nnnc1SCc1ccc(NC(=O)/C=C/c2cnn(C)c2-c2ccc(F)cc2)cc1` [Example 214, (2E)-3-[5-(4-Fluorophenyl)-1-methyl-1H-pyrazol-4-yl]-N-(4-[[(1-methyl-1H-tetrazol-5-yl)thio]methyl]phenyl)acrylamide] the value was 150 to 152 °C; for `Cn1ncc(/C=C/C(=O)Nc2ccc(C(=O)c3ccccc3)cc2)c1-c1ccc(F)cc1` [Example 205, (2E)-N-(4-Benzoylphenyl)-3-[5-(4-fluorophenyl)-1-methyl-1H-pyrazol-4-yl]acrylamide], 110 to 112 °C; for `Cn1ncc(/C=C/C(=O)Nc2ccc(C[S+](C)[O-])cc2)c1-c1ccc(F)cc1` (centres unmarked) [Example 215, (2E)-3-(5-(4-fluorophenyl)-1-methyl-1H-pyrazol-4-yl)-N-(4-((methylsulfinyl)methyl)phenyl)acrylamide], 240 to 241 °C. For `COP(=O)(Cc1ccc(NC(=O)/C=C/c2cnn(C)c2-c2ccccc2F)cc1)OC`, the melting point was 220 to 221 °C. For `CCc1coc(Cc2ccc(NC(=O)/C=C/c3cnn(C)c3-c3ccc(F)cc3)cc2)n1` [Example 98, (2E)-N-{4-[(4-Ethyl-1,3-oxazol-2-yl)methyl]phenyl}-3-[5-(4-fluorophenyl)-1-methyl-1H-pyrazol-4-yl]acrylamide] the value was 174 to 175 °C. For `CCc1nc(Cc2ccc(NC(=O)/C=C/c3cnn(C)c3-c3ccc(F)cc3)cc2)cs1` [Example 99, (2E)-N-{4-[(2-Ethyl-1,3-thiazol-4-yl)methyl]phenyl}-3-[5-(4-fluorophenyl)-1-methyl-1H-pyrazol-4-yl]acrylamide] the value was 178 to 179 °C. For `Cn1ncc(/C=C/C(=O)Nc2ccc(Cc3ccccc3)cc2)c1-c1ccc(F)cc1` [Example 175, (2E)-N-(4-Benzylphenyl)-3-[5-(4-fluorophenyl)-1-methyl-1H-pyrazol-4-yl]acrylamide] the value was 226 to 227 °C; for `Cn1ncc(/C=C/C(=O)Nc2ccc(CCc3nccs3)cc2)c1-c1ccc(F)cc1` [Example 130, (2E)-3-[5-(4-Fluorophenyl)-1-methyl-1H-pyrazol-4-yl]-N-(4-[2-(1,3-thiazol-2-yl)ethyl]phenyl}acrylamide], 201 to 202 °C.

Take `CCc1nnc(Cc2ccc(NC(=O)/C=C/c3cnn(C)c3-c3ccc(F)cc3)cc2)o1` [Example 134, (2E)-N-{4-[(5-ethyl-1,3,4-oxadiazol-2-yl)methyl]phenyl}-3-[5-(4-fluorophenyl)-1-methyl-1H-pyrazol-4-yl]acrylamide]: the melting point is 164 to 165 °C. For `Cn1ncc(/C=C/C(=O)Nc2ccc(Cn3cnnn3)cc2)c1-c1ccc(F)cc1` [Example 199, (2E)-3 [5-(4-Fluorophenyl)-1-methyl-1H-pyrazol-4-yl]-N-[4-(1H-tetrazol-1-ylmethyl)phenyl]acrylamide] the value was 233 to 234 °C.
